Consider 13 molecules from ChEMBL document CHEMBL3861964, “Bioassay-Guided Isolation of Prenylated Xanthone Derivatives from the Leaves of Garcinia oligantha” (J Nat Prod, 2016).

A short description of series [1]: cells. To be noted: Homo sapiens, HT-29, 72 h.
Description: Cytotoxicity against human HT-29 cells assessed as reduction in cell viability after 72 hrs by MTT assay
Series [2] is described as follows: Cytotoxicity against human HL-7702 cells assessed as reduction in cell viability after 72 hrs by MTT assay. Format: toxicity, cell-based, L02. A general note: Tetrazolium dyes change colour on reduction, which living cells bring about.
Series [3] in a line: Cytotoxicity against human HepG2 cells assessed as reduction in cell viability after 72 hrs by MTT assay. Format: functional, cell-based. To be noted: HepG2, 72 h.
Series [4] in a line: Cytotoxicity against human A549 cells assessed as reduction in cell viability after 72 hrs by MTT assay. To be noted: A549, 72 h. Format: functional, cell-based.
Series [5] is described as follows: Cytotoxicity against human PC3 cells assessed as reduction in cell viability after 72 hrs by MTT assay. Particulars: PC-3, 72 h. Format: functional, cell-based.

By IC50 is commonly meant the concentration at which inhibition is half-maximal.

In the case of `CO[C@]12C=C3C(=O)c4c(O)c(CC=C(C)C)c(O)c(CC=C(C)C)c4O[C@]34C(C1)C(C)(C)O[C@]4(CC=C(C)C)C2=O`, the IC50 in series [1] is 2.3 µM; in series [3], 2.9 µM; in series [4] it was 2.9 µM; in series [5] it was 2.3 µM. Besides, the IC50 at 72 h in series [2] came out at 3.1 µM.
Regarding `C=C(C)[C@H]1C[C@](C/C=C(\C)CCC=C(C)C)(C(=O)O)c2c(oc3c(CC=C(C)C)c(O)cc(O)c3c2=O)[C@@H]1O`, the IC50 in series [1], in series [3], in series [4] and in series [5] was more than 10 µM throughout.
Regarding `CC(C)=CCC1=C(O)C(=O)C(CC=C(C)C)(CC=C(C)C)c2c1oc1cc(O)cc(O)c1c2=O`, the IC50 in series [1], in series [3], in series [4] and in series [5] was more than 10 µM in each case.
Regarding `CC(C)=CCC1(CC=C(C)C)C(=O)C(O)=C(O)c2oc3c4c(cc(O)c3c(=O)c21)OC(C)(C)C=C4`, the IC50 in series [1] stood at 4.1 µM; in series [3] it was 6.2 µM; in series [4], 5.5 µM; in series [5] it was 3.2 µM. In addition, the IC50 at 72 h in series [2] is 6.4 µM.
Regarding `CC(C)=CCC/C(C)=C/C[C@]1(C(=O)O)CC(=C(C)C)C(=O)c2oc3c(CC=C(C)C)c(O)cc(O)c3c(=O)c21`, the IC50 in series [1], in series [3], in series [4] and in series [5] was more than 10 µM in each case.
Turning to `CC(C)=CCc1cc(C(C)C)c(O)c2oc3c4c(cc(O)c3c(=O)c12)OC(C)(C)C=C4`, the IC50 in series [1], in series [3], in series [4] and in series [5] was more than 10 µM each time.
Take `CC(C)=CCC/C(C)=C/C[C@@]1(CC=C(C)C)C(=O)C(O)=C(O)c2oc3c4c(cc(O)c3c(=O)c21)OC(C)(C)C=C4`: the IC50 in series [1] was 6.4 µM; in series [3] it was more than 10 µM; in series [4], 5 µM; in series [5], 5.9 µM. Also, the IC50 at 72 h in series [2] was more than 10 µM.
For `CO[C@]12C=C3C(=O)c4c(O)cc(O)c(CC=C(C)C)c4O[C@]34C(C1)C(C)(C)O[C@]4(CC=C(C)C)C2=O`, the IC50 came to 2.2 µM in series [1], 2.8 µM in series [3], 3 µM in series [4] and 2.1 µM in series [5]. Further, the IC50 at 72 h in series [2] was determined as 2.5 µM.
As for `CC(C)=CCc1c(O)cc(O)c2c(=O)c3c(oc12)C(CC=C(C)C)(CC=C(C)C)C(=O)C(O)=C3`, the IC50 in series [1], in series [3], in series [4] and in series [5] was more than 10 µM in each case.
Regarding `CC(C)=CCc1c(O)c(O)c(O)c2oc3c4c(cc(O)c3c(=O)c12)OC(C)(C)C=C4`, the IC50 in series [1], in series [3], in series [4] and in series [5] was more than 10 µM in each case.
For the molecule `CO[C@@]12C=C3C(=O)c4c(O)cc5c(c4O[C@@]34[C@@H]1C(C)(C)O[C@@]4(CC=C(C)C)C2=O)C=CC(C)(C)O5`, the IC50 turned out to be 4.8 µM in series [1], 4.5 µM in series [3], 3.9 µM in series [4] and 4.6 µM in series [5]. Also, in series [2], the IC50 at 72 h is 8.6 µM.
With `CC(C)=CCC1(C(=O)O)CC(=C(C)C)C(=O)c2oc3c4c(cc(O)c3c(=O)c21)OC(C)(C)C=C4` (racemic), the IC50 in series [1], in series [3], in series [4] and in series [5] was more than 10 µM each time.
As to `CC(=O)O[C@H]1C(=O)[C@@]2(C)[C@H]([C@H](OC(=O)c3ccccc3)[C@]3(O)C[C@H](OC(=O)[C@H](O)[C@@H](NC(=O)c4ccccc4)c4ccccc4)C(C)=C1C3(C)C)[C@]1(OC(C)=O)CO[C@@H]1C[C@@H]2O` [PACLITAXEL], the IC50 at 72 h in series [2] amounted to 0.06 µM. Also, the values for the half-maximal inhibitory concentration (IC50) in series [3], in series [4] and in series [5] were 0.2 µM, 0.08 µM and 0.03 µM, respectively.
